This is an account of results in US5962509A, “Dithiolylidene acetamide derivatives” (SSP Co., Ltd., priority 1997, dated 1999).

In this experiment the test system is ovolysozyme. Nature of the experiment: AGE formation inhibitory action: formation of lysozyme dimer (crosslinking) on incubation with xylose, SDS-PAGE with silver staining. The class given is biochemical. The following applies: 1 mg/ml ovolysozyme, 100 mM xylose, pH 7.4 phosphate-buffered saline, 37° C., 21 days; dimer (28.8 Kda) formation relative to control. The method, then: Solutions of the test compound shown in Table 1 in dimethyl sulfoxide, said solutions containing said test compound at various concentrations, were each added together with 1 mg/ml of ovolysozyme and 100 mM of xylose to a phosphate-buffered physiological saline of pH 7.4. Each reaction mixture was then incubated at 37° C. for 21 days. A portion of the reaction mixture, said portion being in a predetermined amount, was then separated by sodium lauryl sulfate-polyacrylamide gel electrophoresis (SDS-PAGE). After the electrophoresis, the gel was treated by silver staining to stain proteins. AGE formation inhibitory action of the test compound was calculated in terms of 50% inhibitory concentration by image-processing and analyzing the degree of formation of the dimer (28.8 Kda) of lysozyme (14.4 Kda) relative to that in a control, that is, a reaction mixture not added with the test compound while making use of NIH Image Ver. 1.55.

On to `NN=C(N)N` [Amionoguanidine, aminoguanidine], for which the “AGE formation inhibitory action, 50% inhibitory concentration (IC50)” value was determined as 30 µg/mL.
For `CCCN(CCC)C(=O)C(CCC(=O)O)NC(=O)C=C1SC=CS1` (centres unmarked) [Example 1, 5-(dipropylamino)-4-((2-(1,3-dithiol-2-ylidene)acetyl)amino)-5-oxopentanoic acid], the “AGE formation inhibitory action, 50% inhibitory concentration (IC50)” value is 30 µg/mL.
